Series [1] in a line: in vivo. To be noted: rat, urine, po, 10 mg/kg.
Series [2] is described as follows: in vitro. To be noted: human, microsomes.
Series [3] can be described thus: in vivo. As to conditions: mouse, plasma.
Series [4] is described as follows: in vivo. As to conditions: mouse, plasma. The source holds these as a separate data set.
A short description of series [5]: in vitro. As to conditions: human, microsomes. The source holds these as a separate data set.
Series [6] in a line: in vitro. As to conditions: PAMPA, pH 7.4. (In general: In PAMPA a lipid-coated filter parts donor from acceptor wells.)
In another series the test system is B cell. As to the kind of experiment: cells. To be noted: Homo sapiens.
The species entered for series [7] is Mus musculus. As to the kind of experiment: animal or person. As to conditions: NZB/WF1, po, 504 h, read-out: INH.
Series [8] is described as follows: in vitro. As to conditions: human, plasma.
Series [9] can be described thus: in vivo. As to conditions: rat, po, 5 mg/kg.
Series [10] can be described thus: in vivo. To be noted: rhesus monkey, iv, 1 mg/kg.
The nature of series [11]: in vivo. As to conditions: rhesus monkey, iv, 1 mg/kg. This is another data set of the same source.
Series [12] in a line: in vivo. To be noted: dog, po, 2 mg/kg.
A short description of series [13]: in vivo. To be noted: mouse, iv, 2 mg/kg.
Series [14] is described as follows: in vivo. As to conditions: rat, iv, 5 mg/kg.
Series [15] is described as follows: in vivo. To be noted: dog, po, 2 mg/kg. This is another data set of the same source.
The species entered for series [16] is Homo sapiens. To be noted: 10 uM.
Series [17] in a line: in vivo. To be noted: rat, iv, 5 mg/kg. This is another data set of the same source.
The nature of series [18]: physchem. As to conditions: buffer, pH 7.
The nature of series [19]: physchem. To be noted: fasted state simulated intestinal fluid (FaSSIF).
A short description of series [20]: in vivo. As to conditions: dog, po, 2 mg/kg. The source holds these as a separate data set.
A short description of series [21]: in vivo. As to conditions: rat, po, 5 mg/kg. The source holds these as a separate data set.
The species entered for series [22] is Mus musculus. As to the kind of experiment: animal or person. To be noted: NZB/WF1, po, 504 h, read-out: INH. The source holds these as a separate data set.
Series [23] is described as follows: in vivo. As to conditions: mouse, po, 4 mg/kg.
The nature of series [24]: in vitro. To be noted: human, Caco-2.
The target of series [25] is Tyrosine-protein kinase BTK (Mus musculus) (UniProt P35991). To be noted: DBA1/J, 2.5 mg/kg.
Series [26] can be described thus: physchem. To be noted: buffer, pH 1.
Series [27] can be described thus: in vivo. To be noted: mouse, po, 4 mg/kg. This is another data set of the same source.
Series [28] can be described thus: in vivo. To be noted: dog, iv, 1 mg/kg.
Series [29] in a line: in vivo. As to conditions: rhesus monkey, po, 2 mg/kg.
The nature of series [30]: in vivo. As to conditions: mouse, po, 4 mg/kg. The source holds these as a separate data set.
The target of series [31] is Tyrosine-protein kinase BTK (Mus musculus) (UniProt P35991). To be noted: DBA1/J, 0.5 mg/kg.
Series [32] in a line: in vivo. As to conditions: mouse, iv, 2 mg/kg. This is another data set of the same source.
Series [33] can be described thus: in vivo. To be noted: rhesus monkey, iv, 1 mg/kg. This is another data set of the same source.
Series [34] is described as follows: in vivo. To be noted: dog, iv, 1 mg/kg. This is another data set of the same source.
Series [35] can be described thus: in vivo. As to conditions: mouse, iv, 2 mg/kg. This is another data set of the same source.
A short description of series [36]: in vivo. To be noted: dog, iv, 1 mg/kg. This is another data set of the same source.
A short description of series [37]: in vivo. To be noted: mouse, iv, 2 mg/kg. This is another data set of the same source.
For series [38], the system named is Cynomolgus monkey. The experiment in a line: animal or person. As to conditions: Macaca fascicularis, po, 72 h, read-out: INH.
Series [39] can be described thus: physchem. As to conditions: fed state simulated intestinal fluid (FeSSIF).
Series [40] is filed under the species Homo sapiens. As to conditions: 10 uM. This is another data set of the same source.
Series [41] can be described thus: in vitro. To be noted: mouse, plasma.
Series [42] can be described thus: in vitro. To be noted: dog, plasma.
Series [43] is filed under the species Mus musculus. The experiment in a line: animal or person. To be noted: DBA1/J, po, 912 h, read-out: INH.
For series [44], the target named is Tyrosine-protein kinase BTK (Mus musculus) (UniProt P35991). To be noted: DBA1/J, 0.1 mg/kg.
Series [45] in a line: in vivo. To be noted: rat, iv, 5 mg/kg. This is another data set of the same source.
Series [46] is described as follows: in vivo. As to conditions: rhesus monkey, iv, 1 mg/kg. The source holds these as a separate data set.
The nature of series [47]: in vivo. As to conditions: dog, iv, 1 mg/kg. The source holds these as a separate data set.
Series [48] is described as follows: in vivo. To be noted: rat, po, 5 mg/kg. The source holds these as a separate data set.
For series [49], the target named is Tyrosine-protein kinase BTK (Mus musculus) (UniProt P35991). As to conditions: 0.5 mg/kg.
Series [50] is described as follows: in vivo. As to conditions: rhesus monkey, po, 2 mg/kg. This is another data set of the same source.
The subject of series [51] is Cynomolgus monkey. As to the kind of experiment: animal or person. To be noted: Macaca fascicularis, po, 4 h, read-out: INH.
Series [52] is described as follows: in vitro. To be noted: human, Caco-2. This is another data set of the same source.
Series [53] is described as follows: in vivo. As to conditions: rat, iv, 5 mg/kg. The source holds these as a separate data set.
Series [54] is filed under the species Mus musculus. The experiment in a line: animal or person. To be noted: NZB/WF1, po, 504 h, read-out: INH. The source holds these as a separate data set.
Series [55] in a line: in vivo. As to conditions: rhesus monkey, po, 2 mg/kg. The source holds these as a separate data set.
Series [56] can be described thus: in vivo. To be noted: dog, po, 2 mg/kg. The source holds these as a separate data set.
Series [57] is filed under the species Mus musculus. To be noted: DBA1/J, 0.1 to 2.5 mg/kg.
The target of series [58] is Tyrosine-protein kinase BTK (Mus musculus) (UniProt P35991). To be noted: NZB/WF1, 0.2 mg/kg.
Series [59] shares this target. To be noted: 0.5 to 2.5 mg/kg.
Series [60] in a line: in vitro. As to conditions: rat, plasma.
The target of series [61] is Tyrosine-protein kinase BTK (Mus musculus) (UniProt P35991). As to conditions: NZB/WF1, 0.5 mg/kg.
A short description of series [62]: in vitro. To be noted: PAMPA, pH 5.5.
Series [63] can be described thus: in vitro. To be noted: rhesus monkey, plasma.
Series [64] is described as follows: in vivo. To be noted: rat, po, 5 mg/kg. This is another data set of the same source.
Series [65] can be described thus: in vivo. To be noted: rhesus monkey, po, 2 mg/kg. This is another data set of the same source.
A short description of series [66]: in vivo. To be noted: mouse, po, 4 mg/kg. This is another data set of the same source.
Series [67] concerns the target Tyrosine-protein kinase BTK (Mus musculus) (UniProt P35991). As to conditions: 0.5 mg/kg. This is another data set of the same source.

≈ marks a conversion by molar mass, not a printed value. Calls of active or inactive are those of the source. The rule behind the calls is not given here.

We go through five molecules from ChEMBL document CHEMBL4616583 (J Med Chem, 2019).

Sequence of Tyrosine-protein kinase BTK (Mus musculus) (P35991 whole entry): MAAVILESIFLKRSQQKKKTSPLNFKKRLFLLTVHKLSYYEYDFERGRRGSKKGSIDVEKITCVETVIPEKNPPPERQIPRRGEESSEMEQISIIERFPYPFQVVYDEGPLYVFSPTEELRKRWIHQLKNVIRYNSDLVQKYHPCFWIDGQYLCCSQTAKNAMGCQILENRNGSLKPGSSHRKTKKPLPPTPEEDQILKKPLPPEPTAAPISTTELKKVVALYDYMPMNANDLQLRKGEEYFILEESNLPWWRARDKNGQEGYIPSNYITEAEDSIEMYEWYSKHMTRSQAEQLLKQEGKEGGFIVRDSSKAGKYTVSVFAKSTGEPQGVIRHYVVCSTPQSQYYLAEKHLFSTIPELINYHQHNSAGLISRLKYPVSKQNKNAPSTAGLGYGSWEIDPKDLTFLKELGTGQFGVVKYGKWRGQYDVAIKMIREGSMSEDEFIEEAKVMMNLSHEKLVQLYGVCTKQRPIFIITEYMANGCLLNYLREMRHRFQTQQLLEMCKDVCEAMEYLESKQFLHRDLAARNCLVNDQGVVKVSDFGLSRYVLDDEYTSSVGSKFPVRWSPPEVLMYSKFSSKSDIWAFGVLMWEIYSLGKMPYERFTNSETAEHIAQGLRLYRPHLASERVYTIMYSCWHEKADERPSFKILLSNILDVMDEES

On to `CC#C[14C](=O)N[C@H]1CCCN(c2c(F)cc(C(N)=O)c3[nH]c(C)c(C)c23)C1`, for which the dose excreted at 72 h in “in vivo [1]” came out at 0.7%.

Turning to `C=CS(=O)(=O)N[C@@H]1CCCN(c2ccc(C(N)=O)c3[nH]c(C)c(C)c23)C1`, the share remaining at 10 min in the series “in vitro [2]” came out at 84%.

For `CC#CC(=O)N[C@H]1CCCN(c2ccc(C(N)=O)c3[nH]c(C)c(C)c23)C1`, the AUC in the series “in vivo [3]” is 1.1 µM·h. In the series “in vivo [4]”, this molecule registered a Cmax of 0.49 µM.

Consider `C=CS(=O)(=O)N[C@H]1CCCN(c2ccc(C(N)=O)c3[nH]c(C)c(C)c23)C1`, for which the half-life in “in vitro [5]” was found to be 0.833 h. In the series “in vitro [2]”, this molecule came in with a share remaining at 10 min of 90%. Also, the peak level in the series “in vivo [4]” (Cmax) was 0.127 µM.

Consider `CC#CC(=O)N[C@H]1CCCN(c2c(F)cc(C(N)=O)c3[nH]c(C)c(C)c23)C1` [BRANEBRUTINIB], for which the Papp in the series “in vitro [6]” is 97.8 ×10⁻⁶ cm/s; in the series “in vitro [62]”, 85.9 ×10⁻⁶ cm/s. Further, the IC50 in the series on B cell was 0.04 nM. Besides, the inhibition in vivo at 0.2 mg/kg in the series filed under Mus musculus [7] turned out to be 40%. For the same molecule, the fraction unbound is 0.012 in the series “in vitro [8]”; 0.004 in the series “in vitro [41]”; 0.002 in “in vitro [42]”; 0.002 in the series “in vitro [60]”; 0.004 in the series “in vitro [63]”. For the same molecule, the bioavailability was determined as 74% in the series “in vivo [9]”, 81% in “in vivo [20]”, 106% in “in vivo [30]” and 46% in the series “in vivo [65]”. Moreover, the Vd turned out to be 0.45 L/kg in the series “in vivo [10]”, 0.48 L/kg in the series “in vivo [13]”, 0.24 L/kg in “in vivo [36]” and 0.4 L/kg in “in vivo [53]”. Also, the half-life in the series “in vivo [11]” is 3.2 h; in “in vivo [34]” it was 3 h; in “in vivo [37]”, 0.46 h; in the series “in vivo [45]” it was 4.3 h. In addition, the AUC in “in vivo [12]” amounted to 78 µM·h; in the series “in vivo [3]”, 52 µM·h; in the series “in vivo [29]”, 4.9 µM·h; in the series “in vivo [64]” it was 18 µM·h; in “in vivo [66]”, 14 µM·h. For the same molecule, the MRT turned out to be 0.8 h in the series “in vivo [14]”, 4.1 h in “in vivo [28]”, 0.57 h in “in vivo [32]” and 1 h in the series “in vivo [46]”. Further, the Tmax in “in vivo [15]” worked out at 0.67 h; in the series “in vivo [21]”, 0.58 h; in the series “in vivo [27]”, 1 h; in “in vivo [50]”, 1 h. Also, the inhibition is 23% in the series listed under Homo sapiens [16]; 99% in series [25]; 97% in series [31]; 3.1% in the series filed under Homo sapiens [40]; 64% in series [44]; 86% in series [49]. For the same molecule, the inhibition in [58] amounted to 92%; in [59] it was 25%; in [61], 99%; in [67] it was 90%. In addition, the clearance in “in vivo [17]” is 8.7 mL/min/kg; in the series “in vivo [33]”, 9.4 mL/min/kg; in the series “in vivo [35]”, 14 mL/min/kg; in “in vivo [47]” it was 0.94 mL/min/kg. Also, the logD in “physchem [18]” amounted to 3.18. The solubility is 9 µg/mL (≈ 24.3 µM) in “physchem [19]”, 2 to 3 µg/mL (≈ 5.4 to 8.1 µM) in “physchem [26]” and 145 µg/mL (≈ 391 µM) in “physchem [39]”. Further, the inhibition in vivo at […] in the series listed under Mus musculus [22] came to 61%. Besides, the Cmax in the series “in vivo [23]” came to 7.7 µM; in the series “in vivo [48]” it was 9.6 µM; in “in vivo [55]”, 2.3 µM; in “in vivo [56]”, 19 µM; in “in vivo [4]”, 42 µM. Besides, the Papp B→A in the series “in vitro [24]” was 12.7 to 25 ×10⁻⁶ cm/s. Also, the results for the inhibition in vivo at 0.5 mg/kg with Cynomolgus monkey [38], in the series with Cynomolgus monkey [51] and in the series listed under Mus musculus [54] were 74%, 100% and 51%, respectively. Moreover, the inhibition in vivo at 2.5 mg/kg in the series filed under Mus musculus [43] is 92%. The molecule also had a Papp A→B in “in vitro [52]” of 17.7 to 42.2 ×10⁻⁶ cm/s. The inhibition result in the series filed under Mus musculus [57] is “Active”.

Usually fraction remaining stands for the share of the starting amount still present when the sample was taken. The term AUC denotes the area under the concentration-time curve, a measure of exposure. As a reminder, the Cmax is the highest concentration seen after dosing. A word on the half-life: it is the time in which the quantity being followed falls by half. What is called Papp is a coefficient for how fast a substance crosses the barrier. A word on the IC50: it is the concentration that gives 50% inhibition. As a reminder, the fraction unbound is the share of the substance not bound to proteins or other matrix. For orientation: Vd means a proportionality between amount in the body and measured concentration, not a real space. The MRT is the average time that molecules of a dose stay in the body. As a reminder, the Tmax is the time from dosing to the highest level. By inhibition is commonly meant the change of the read-out against control, counted positive when it falls. The clearance is a measure of how efficiently the substance is removed, as volume per time. As usually defined, the logD is lipophilicity at a set pH, counting ionised and neutral species. Broadly, the solubility is the concentration that dissolves in the medium under given conditions. Usually Papp B→A stands for how fast a substance crosses the layer from the basolateral side. By Papp A→B is commonly meant how fast a substance crosses the layer from the apical side.
